In patent US7553864B2, “Compounds for the treatment of inflammatory disorders and microbial diseases” (Schering Corporation, priority 2005, dated 2009):

Tested on: LpxC enzyme
Assay: LpxC enzyme assay (RapidFire high-throughput mass spectrometry)
Type: biochemical
Protocol: The standard LpxC assay consists of 0.2 nM LpxC enzyme, 1.0 μM UDP-3-O—(R-3-hydroxymyristoyl)-N-acetylglucosamine, and test compound, in assay buffer and 2% DMSO. Assay buffer is comprised of 25 mM HEPES, pH 7.3, 150 mM NaCl, 2.0 mM DTT, and 0.01% BSA. The enzyme reaction is carried out in a 96-well assay plate, in a final volume of 102 μL. Solutions of test compounds are prepared in 100% DMSO. Reaction additions, in order, are (1) 2.0 μL compound solution, (2) 80 μL of assay buffer, (3) 10 μL of 10 μM UDP-3-O—(R-3-hydroxymyristoyl)-N-acetylglucosamine (in assay buffer) and, (4) 10 μL of LpxC enzyme (20 nM in assay buffer) to initiate the reaction. In positive control reactions, addition (1) has 2.0 μL of 100% DMSO (without compound); these reactions are used as the total signal (TSB) value. Reactions are incubated at room temperature for 60 minutes when 10 μL of 1 N HCl is added to stop the reaction. The plate is shaken by hand for 10 seconds to ensure complete quenching. Assay plates are sealed with foil tape, and stored at −80° C. for 24-48 hr prior to analysis.
The concentrations of substrate and product in the reaction mixtures are determined with BioTrove's proprietary RapidFire™ high-throughput mass spectrometry (HTMS). Assay mixtures are partially purified with reverse phase chromatography, where they are washed with water containing 5 mM ammonium formate and eluted onto the mass spectrometer in 80% acetonitrile, 20% water, and 5 mM ammonium formate. The mass spectrometry peak areas of the substrate and product are measured to determine the concentration of these analytes. The assay signal is the percentage of substrate that is converted to product. Percent inhibition, % I, in test samples is determined from the following equation: […]

[1] = concentration 0.10 (unit not given)
[2] = concentration 0.20 (unit not given)
[3] = concentration 0.39 (unit not given)
[4] = concentration 0.78 (unit not given)
[5] = concentration 1.56 (unit not given)
[6] = concentration 3.13 (unit not given)
[7] = concentration 6.25 (unit not given)
[8] = concentration 12.50 (unit not given)
[9] = concentration 25 (unit not given)
[10] = concentration 50 (unit not given)

| SMILES | LpxC enzyme assay rating (% inhibition at indicated concentrations) [1] | LpxC enzyme assay rating (% inhibition at indicated concentrations) [2] | LpxC enzyme assay rating (% inhibition at indicated concentrations) [3] | LpxC enzyme assay rating (% inhibition at indicated concentrations) [4] | LpxC enzyme assay rating (% inhibition at indicated concentrations) [5] | LpxC enzyme assay rating (% inhibition at indicated concentrations) [6] | LpxC enzyme assay rating (% inhibition at indicated concentrations) [7] | LpxC enzyme assay rating (% inhibition at indicated concentrations) [8] | LpxC enzyme assay rating (% inhibition at indicated concentrations) [9] | LpxC enzyme assay rating (% inhibition at indicated concentrations) [10] |
| --- | --- | --- | --- | --- | --- | --- | --- | --- | --- | --- |
| CNC(=O)[C@H](O)[C@@H](O)C(=O)N1CCN(c2ccc(-c3ccccc3)cc2)CC1 [Compound 30] | C (less than 10% inhibition) | B (10-30% inhibition) | B (10-30% inhibition) | C (less than 10% inhibition) | C (less than 10% inhibition) | B (10-30% inhibition) | B (10-30% inhibition) | B (10-30% inhibition) | B (10-30% inhibition) | A (greater than 30% inhibition) |
| CNC(=O)[C@H](O)[C@@H](O)C(=O)N1CCN(c2cccc(-c3ccccc3)c2)CC1 [Compound 31] | C (less than 10% inhibition) | B (10-30% inhibition) | C (less than 10% inhibition) | B (10-30% inhibition) | B (10-30% inhibition) | B (10-30% inhibition) | C (less than 10% inhibition) | B (10-30% inhibition) | B (10-30% inhibition) | B (10-30% inhibition) |
| CCCCc1ccc(NC(=O)[C@H](O)[C@@H](O)C(=O)NC)cc1 [Compound 32] | B (10-30% inhibition) | B (10-30% inhibition) | B (10-30% inhibition) | B (10-30% inhibition) | C (less than 10% inhibition) | B (10-30% inhibition) | C (less than 10% inhibition) | B (10-30% inhibition) | B (10-30% inhibition) | B (10-30% inhibition) |
| CCCc1ccc(NC(=O)[C@H](O)[C@@H](O)C(=O)NC)cc1 [Compound 33] | C (less than 10% inhibition) | C (less than 10% inhibition) | C (less than 10% inhibition) | C (less than 10% inhibition) | B (10-30% inhibition) | B (10-30% inhibition) | B (10-30% inhibition) | C (less than 10% inhibition) | C (less than 10% inhibition) | C (less than 10% inhibition) |
| CCC(C)c1ccc(NC(=O)[C@H](O)[C@@H](O)C(=O)NC)cc1 (some centres unmarked) [Compound 34] | C (less than 10% inhibition) | B (10-30% inhibition) | C (less than 10% inhibition) | B (10-30% inhibition) | B (10-30% inhibition) | C (less than 10% inhibition) | B (10-30% inhibition) | C (less than 10% inhibition) | B (10-30% inhibition) | B (10-30% inhibition) |
